Laboratory results from ChEMBL document CHEMBL3991601, “The target landscape of clinical kinase drugs” (Science, 2017).
The source made the active and inactive calls. For most assays here, no stated cut-off is given here; in the data, actives have a measured Kd and inactives only a lower limit.

What was measured:
[1] = target: Tyrosine-protein kinase ABL2 (Homo sapiens, UniProt P42684)
[2] = target: Atypical kinase COQ8A, mitochondrial (Homo sapiens, UniProt Q8NI60)
[3] = target: Bone morphogenetic protein receptor type-1B (Homo sapiens, UniProt O00238)
[4] = target: T1, Cysteine--tRNA ligase, cytoplasmic (Homo sapiens, UniProt P49589)
T1 sequence (P49589 whole entry): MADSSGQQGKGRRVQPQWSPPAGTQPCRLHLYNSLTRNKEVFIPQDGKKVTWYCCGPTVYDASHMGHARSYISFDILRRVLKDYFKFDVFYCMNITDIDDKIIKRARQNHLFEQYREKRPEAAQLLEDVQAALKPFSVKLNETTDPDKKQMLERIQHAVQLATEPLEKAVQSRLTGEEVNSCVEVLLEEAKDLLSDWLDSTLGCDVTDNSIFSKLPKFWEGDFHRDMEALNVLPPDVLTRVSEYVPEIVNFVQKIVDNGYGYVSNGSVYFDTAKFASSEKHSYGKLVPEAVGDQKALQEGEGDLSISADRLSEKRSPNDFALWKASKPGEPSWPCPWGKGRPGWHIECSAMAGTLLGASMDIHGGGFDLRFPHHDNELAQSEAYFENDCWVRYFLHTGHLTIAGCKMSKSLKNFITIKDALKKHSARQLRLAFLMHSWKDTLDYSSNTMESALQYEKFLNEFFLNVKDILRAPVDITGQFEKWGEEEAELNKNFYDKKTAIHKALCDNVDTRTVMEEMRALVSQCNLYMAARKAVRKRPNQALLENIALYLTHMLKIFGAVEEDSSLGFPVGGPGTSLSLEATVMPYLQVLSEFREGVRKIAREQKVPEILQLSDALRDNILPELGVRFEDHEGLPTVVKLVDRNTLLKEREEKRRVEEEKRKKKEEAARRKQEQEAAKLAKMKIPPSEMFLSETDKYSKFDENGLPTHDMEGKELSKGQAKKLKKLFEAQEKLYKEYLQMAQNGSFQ

Ephrin type-A receptor 7 = Ephrin type-A receptor 7 (Homo sapiens, UniProt Q15375)
[5] = target: Dual specificity mitogen-activated protein kinase kinase 2 (Homo sapiens, UniProt P36507)
[6] = target: S-adenosylmethionine synthase isoform type-2 (Homo sapiens, UniProt P31153)
[7] = target: T2, RNA cytidine acetyltransferase (Homo sapiens, UniProt Q9H0A0)
T2 sequence (Q9H0A0 whole entry): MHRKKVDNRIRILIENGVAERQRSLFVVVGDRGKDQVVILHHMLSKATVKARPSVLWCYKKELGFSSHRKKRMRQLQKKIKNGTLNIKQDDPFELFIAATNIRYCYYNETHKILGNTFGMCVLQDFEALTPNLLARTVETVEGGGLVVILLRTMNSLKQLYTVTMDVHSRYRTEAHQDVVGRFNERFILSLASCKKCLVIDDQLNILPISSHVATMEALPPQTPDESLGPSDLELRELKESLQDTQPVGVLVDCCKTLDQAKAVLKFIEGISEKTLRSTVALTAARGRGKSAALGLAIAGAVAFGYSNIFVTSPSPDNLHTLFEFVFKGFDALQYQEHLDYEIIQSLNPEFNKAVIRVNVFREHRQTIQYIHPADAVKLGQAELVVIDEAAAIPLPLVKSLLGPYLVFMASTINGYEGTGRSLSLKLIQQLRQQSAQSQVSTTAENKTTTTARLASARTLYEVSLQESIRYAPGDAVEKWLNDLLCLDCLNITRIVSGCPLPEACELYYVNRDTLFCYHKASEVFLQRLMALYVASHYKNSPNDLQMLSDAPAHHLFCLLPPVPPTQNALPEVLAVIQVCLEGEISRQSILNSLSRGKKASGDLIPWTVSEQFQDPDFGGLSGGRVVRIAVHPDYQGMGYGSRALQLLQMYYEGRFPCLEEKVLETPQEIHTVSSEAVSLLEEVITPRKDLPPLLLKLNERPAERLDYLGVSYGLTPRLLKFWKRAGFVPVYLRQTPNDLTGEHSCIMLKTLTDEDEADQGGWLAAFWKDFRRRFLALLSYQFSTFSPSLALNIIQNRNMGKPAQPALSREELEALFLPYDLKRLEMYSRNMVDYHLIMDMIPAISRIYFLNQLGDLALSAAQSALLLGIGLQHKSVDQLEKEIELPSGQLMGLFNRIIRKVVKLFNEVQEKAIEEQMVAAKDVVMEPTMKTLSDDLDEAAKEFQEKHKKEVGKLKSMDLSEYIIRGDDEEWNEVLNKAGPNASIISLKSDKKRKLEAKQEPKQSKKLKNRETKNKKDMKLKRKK

[8] = target: T3, Serine/threonine-protein kinase 4 (Homo sapiens, UniProt Q13043)
T3 sequence (Q13043 whole entry): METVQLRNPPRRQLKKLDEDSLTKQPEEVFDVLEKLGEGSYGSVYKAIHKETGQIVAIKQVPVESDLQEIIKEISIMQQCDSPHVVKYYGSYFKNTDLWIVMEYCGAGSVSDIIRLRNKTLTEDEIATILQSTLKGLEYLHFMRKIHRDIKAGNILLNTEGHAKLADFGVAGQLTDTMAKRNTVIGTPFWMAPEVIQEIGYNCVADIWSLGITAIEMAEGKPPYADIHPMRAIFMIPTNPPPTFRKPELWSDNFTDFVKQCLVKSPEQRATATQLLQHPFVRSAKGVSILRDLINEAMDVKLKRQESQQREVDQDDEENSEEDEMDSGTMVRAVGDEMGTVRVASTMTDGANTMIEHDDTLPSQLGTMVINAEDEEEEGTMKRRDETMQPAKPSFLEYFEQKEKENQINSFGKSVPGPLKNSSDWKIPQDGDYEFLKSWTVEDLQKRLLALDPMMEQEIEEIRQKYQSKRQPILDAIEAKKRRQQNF

Chain of Dual specificity mitogen-activated protein kinase kinase 2 (P36507 whole entry, canonical isoform): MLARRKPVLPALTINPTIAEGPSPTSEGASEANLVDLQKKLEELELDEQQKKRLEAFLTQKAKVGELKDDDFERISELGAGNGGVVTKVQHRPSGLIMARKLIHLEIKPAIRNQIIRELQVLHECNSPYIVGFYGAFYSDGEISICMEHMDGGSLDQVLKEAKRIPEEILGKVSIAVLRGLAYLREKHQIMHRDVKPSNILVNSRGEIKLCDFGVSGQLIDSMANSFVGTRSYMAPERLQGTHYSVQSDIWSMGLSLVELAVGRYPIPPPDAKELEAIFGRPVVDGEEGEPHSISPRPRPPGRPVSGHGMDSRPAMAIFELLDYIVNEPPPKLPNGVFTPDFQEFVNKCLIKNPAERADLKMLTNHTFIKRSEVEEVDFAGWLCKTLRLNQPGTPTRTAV
Chain of Bone morphogenetic protein receptor type-1B (O00238 whole entry): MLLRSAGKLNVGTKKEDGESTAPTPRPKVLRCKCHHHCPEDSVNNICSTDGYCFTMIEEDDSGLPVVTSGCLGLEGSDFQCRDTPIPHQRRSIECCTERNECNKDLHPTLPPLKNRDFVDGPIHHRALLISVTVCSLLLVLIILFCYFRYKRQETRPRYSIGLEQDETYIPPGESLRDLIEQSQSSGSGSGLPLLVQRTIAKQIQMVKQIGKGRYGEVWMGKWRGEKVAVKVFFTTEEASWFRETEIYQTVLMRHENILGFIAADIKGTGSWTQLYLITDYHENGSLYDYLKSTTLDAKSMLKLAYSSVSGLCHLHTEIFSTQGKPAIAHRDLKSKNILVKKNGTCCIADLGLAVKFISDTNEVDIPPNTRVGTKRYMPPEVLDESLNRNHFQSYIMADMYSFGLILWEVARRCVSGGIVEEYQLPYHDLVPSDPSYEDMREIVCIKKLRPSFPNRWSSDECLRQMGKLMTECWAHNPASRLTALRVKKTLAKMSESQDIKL
Chain of S-adenosylmethionine synthase isoform type-2 (P31153 whole entry, canonical isoform): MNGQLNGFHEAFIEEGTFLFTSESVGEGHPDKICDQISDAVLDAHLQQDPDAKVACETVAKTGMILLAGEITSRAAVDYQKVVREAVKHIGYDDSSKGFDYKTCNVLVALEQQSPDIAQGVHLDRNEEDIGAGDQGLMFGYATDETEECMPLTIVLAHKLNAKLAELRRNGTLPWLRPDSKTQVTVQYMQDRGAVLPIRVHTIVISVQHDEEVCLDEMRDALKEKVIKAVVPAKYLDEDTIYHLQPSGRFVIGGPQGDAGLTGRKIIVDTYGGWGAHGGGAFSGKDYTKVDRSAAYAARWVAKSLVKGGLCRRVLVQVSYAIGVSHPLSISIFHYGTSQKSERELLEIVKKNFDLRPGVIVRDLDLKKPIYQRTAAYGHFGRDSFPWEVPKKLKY
Chain of Ephrin type-A receptor 7 (Q15375 whole entry): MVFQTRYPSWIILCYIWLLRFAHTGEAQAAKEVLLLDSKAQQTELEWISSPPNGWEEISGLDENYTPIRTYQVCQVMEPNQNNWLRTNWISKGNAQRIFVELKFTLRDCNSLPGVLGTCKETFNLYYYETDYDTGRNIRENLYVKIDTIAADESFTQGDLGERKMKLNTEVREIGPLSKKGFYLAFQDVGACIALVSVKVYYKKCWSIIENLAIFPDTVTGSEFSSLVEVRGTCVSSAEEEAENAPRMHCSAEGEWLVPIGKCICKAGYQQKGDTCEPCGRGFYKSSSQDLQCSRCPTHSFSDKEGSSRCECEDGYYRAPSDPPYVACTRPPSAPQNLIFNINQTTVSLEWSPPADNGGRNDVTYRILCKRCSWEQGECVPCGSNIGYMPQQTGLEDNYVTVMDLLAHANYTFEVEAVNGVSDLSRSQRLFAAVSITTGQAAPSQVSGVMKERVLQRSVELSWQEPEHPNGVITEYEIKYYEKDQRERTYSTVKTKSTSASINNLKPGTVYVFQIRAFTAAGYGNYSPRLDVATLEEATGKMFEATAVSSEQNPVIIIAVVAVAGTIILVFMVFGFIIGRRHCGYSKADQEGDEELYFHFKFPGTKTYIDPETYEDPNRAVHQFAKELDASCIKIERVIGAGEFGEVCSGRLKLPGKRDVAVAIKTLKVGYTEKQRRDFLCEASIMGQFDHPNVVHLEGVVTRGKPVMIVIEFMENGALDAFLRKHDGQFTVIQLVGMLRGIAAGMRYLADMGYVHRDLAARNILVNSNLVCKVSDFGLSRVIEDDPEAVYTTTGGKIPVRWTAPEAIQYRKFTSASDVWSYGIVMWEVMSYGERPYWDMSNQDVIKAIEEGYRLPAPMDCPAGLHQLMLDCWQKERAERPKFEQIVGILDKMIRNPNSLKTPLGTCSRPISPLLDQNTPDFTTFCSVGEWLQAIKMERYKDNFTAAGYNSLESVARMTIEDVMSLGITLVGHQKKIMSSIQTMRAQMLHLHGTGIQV
Chain of Tyrosine-protein kinase ABL2 (P42684 whole entry): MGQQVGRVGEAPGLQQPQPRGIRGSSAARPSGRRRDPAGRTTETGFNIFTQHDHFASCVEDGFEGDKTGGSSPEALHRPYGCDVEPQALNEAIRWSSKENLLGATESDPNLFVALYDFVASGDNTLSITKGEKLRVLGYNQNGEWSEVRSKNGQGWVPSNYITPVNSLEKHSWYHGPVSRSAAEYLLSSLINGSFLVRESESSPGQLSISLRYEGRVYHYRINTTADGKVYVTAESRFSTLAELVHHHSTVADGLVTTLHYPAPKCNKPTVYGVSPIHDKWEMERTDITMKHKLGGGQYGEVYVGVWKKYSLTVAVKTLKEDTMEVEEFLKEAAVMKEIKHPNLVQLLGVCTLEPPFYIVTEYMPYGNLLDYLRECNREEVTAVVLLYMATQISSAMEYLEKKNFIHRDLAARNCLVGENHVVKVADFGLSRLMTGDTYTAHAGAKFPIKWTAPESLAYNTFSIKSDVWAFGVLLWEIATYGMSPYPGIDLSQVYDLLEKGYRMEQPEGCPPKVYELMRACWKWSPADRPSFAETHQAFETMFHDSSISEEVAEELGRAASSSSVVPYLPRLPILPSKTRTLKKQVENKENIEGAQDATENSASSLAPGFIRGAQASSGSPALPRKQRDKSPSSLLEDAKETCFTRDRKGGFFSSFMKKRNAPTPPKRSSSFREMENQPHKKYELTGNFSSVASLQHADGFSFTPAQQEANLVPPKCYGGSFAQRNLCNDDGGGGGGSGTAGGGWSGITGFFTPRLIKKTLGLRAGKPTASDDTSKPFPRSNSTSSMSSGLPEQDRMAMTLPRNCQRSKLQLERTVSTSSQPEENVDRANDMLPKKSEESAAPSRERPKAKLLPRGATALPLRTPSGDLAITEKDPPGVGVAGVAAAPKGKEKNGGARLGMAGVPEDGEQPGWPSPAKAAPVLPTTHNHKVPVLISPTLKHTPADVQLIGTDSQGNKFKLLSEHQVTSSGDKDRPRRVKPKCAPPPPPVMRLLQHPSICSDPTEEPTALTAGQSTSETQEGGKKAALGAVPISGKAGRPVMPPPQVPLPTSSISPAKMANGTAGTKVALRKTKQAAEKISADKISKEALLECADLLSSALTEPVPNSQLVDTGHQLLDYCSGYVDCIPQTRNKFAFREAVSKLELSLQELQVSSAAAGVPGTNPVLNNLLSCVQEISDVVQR
Chain of Atypical kinase COQ8A, mitochondrial (Q8NI60 whole entry): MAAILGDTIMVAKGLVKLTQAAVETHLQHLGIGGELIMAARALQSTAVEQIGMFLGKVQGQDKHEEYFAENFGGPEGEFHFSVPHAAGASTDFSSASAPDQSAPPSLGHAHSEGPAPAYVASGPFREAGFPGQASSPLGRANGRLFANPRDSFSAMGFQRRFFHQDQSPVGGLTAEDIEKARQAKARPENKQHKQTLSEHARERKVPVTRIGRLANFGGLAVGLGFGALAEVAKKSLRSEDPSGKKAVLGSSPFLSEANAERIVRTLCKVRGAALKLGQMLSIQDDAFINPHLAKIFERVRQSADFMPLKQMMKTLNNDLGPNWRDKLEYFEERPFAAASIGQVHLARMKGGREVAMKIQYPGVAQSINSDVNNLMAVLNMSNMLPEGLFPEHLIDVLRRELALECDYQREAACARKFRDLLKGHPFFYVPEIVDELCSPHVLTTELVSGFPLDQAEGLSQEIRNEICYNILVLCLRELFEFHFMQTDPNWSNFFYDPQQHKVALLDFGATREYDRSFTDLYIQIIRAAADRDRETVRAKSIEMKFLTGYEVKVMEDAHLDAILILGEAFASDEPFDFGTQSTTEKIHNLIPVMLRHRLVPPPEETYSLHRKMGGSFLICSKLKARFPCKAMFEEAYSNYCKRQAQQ

Row | Kd [1] | Kd [2] | Kd [3] | Kd [4] | Kd (Ephrin type-A receptor 7) | Kd [5] | Kd [6] | Kd [7] | Kd [8] | SMILES
1 | > 30 µM (inactive) | > 30 µM (inactive) | > 30 µM (inactive) | > 30 µM (inactive) | > 30 µM (inactive) | > 30 µM (inactive) | > 30 µM (inactive) | > 30 µM (inactive) | > 30 µM (inactive) | COc1ccc2c(OCc3nnc4ccc(-c5ccccc5)nn34)ccnc2c1 [AMG-208]
2 | > 30 µM (inactive) | > 30 µM (inactive) | > 30 µM (inactive) | > 30 µM (inactive) | > 30 µM (inactive) | > 30 µM (inactive) | > 30 µM (inactive) | > 30 µM (inactive) | 0.861 µM (active) | Cc1cc(Nc2nc(N[C@@H](C)c3ncc(F)cn3)ncc2Cl)n[nH]1 [AZD-1480]
3 | 0.04 µM (active) | > 30 µM (inactive) | > 30 µM (inactive) | – | > 30 µM (inactive) | > 30 µM (inactive) | > 30 µM (inactive) | > 30 µM (inactive) | > 30 µM (inactive) | COc1cccc(Nc2ncnn3ccc(CN4CC[C@@H](N)[C@H](O)C4)c23)c1 [BMS-690514]
4 | – | > 30 µM (inactive) | > 30 µM (inactive) | > 30 µM (inactive) | > 30 µM (inactive) | > 30 µM (inactive) | > 30 µM (inactive) | > 30 µM (inactive) | – | CCOc1ccn(-c2ccc(F)cc2)c(=O)c1C(=O)Nc1ccc(Oc2ccnc(N)c2Cl)c(F)c1 [BMS-777607]
5 | > 30 µM (inactive) | > 30 µM (inactive) | > 30 µM (inactive) | – | > 30 µM (inactive) | 0.02 µM (active) | > 30 µM (inactive) | > 30 µM (inactive) | > 30 µM (inactive) | Cn1c(=O)c(F)c(Nc2ccc(I)cc2F)c2c(=O)n(C[C@@H](O)CO)cnc21 [TAK-733]

Second part, the compound before the results:

Row | SMILES | Kd [1] | Kd [2] | Kd [3] | Kd [4] | Kd (Ephrin type-A receptor 7) | Kd [5] | Kd [6] | Kd [7] | Kd [8]
6 | Cn1cc(-c2[nH]c3cc(NC(=O)[C@H](N)C4CCCCC4)cc4c3c2C=NNC4=O)cn1 | 1.37 µM (active) | > 30 µM (inactive) | 2.01 µM (active) | > 30 µM (inactive) | > 30 µM (inactive) | > 30 µM (inactive) | > 30 µM (inactive) | > 30 µM (inactive) | > 30 µM (inactive)
7 | Cc1c(NC(=O)OC[C@@H]2COCCN2)cn2ncnc(Nc3ccc4c(cnn4Cc4cccc(F)c4)c3)c12 [AC-480] | > 30 µM (inactive) | > 30 µM (inactive) | > 30 µM (inactive) | – | > 30 µM (inactive) | > 30 µM (inactive) | > 30 µM (inactive) | > 30 µM (inactive) | > 30 µM (inactive)
8 | CCc1cc2c(cc1N1CCC(N3CCOCC3)CC1)C(C)(C)c1[nH]c3cc(C#N)ccc3c1C2=O [ALECTINIB] | > 30 µM (inactive) | > 30 µM (inactive) | > 30 µM (inactive) | > 30 µM (inactive) | > 30 µM (inactive) | > 30 µM (inactive) | > 30 µM (inactive) | > 30 µM (inactive) | > 30 µM (inactive)
9 | S=C(NCc1ccc2c(c1)OCO2)N1CCN(c2ncnc3c2oc2ccccc23)CC1 [AMUVATINIB] | > 30 µM (inactive) | > 30 µM (inactive) | > 30 µM (inactive) | > 30 µM (inactive) | > 30 µM (inactive) | > 30 µM (inactive) | > 30 µM (inactive) | > 30 µM (inactive) | > 30 µM (inactive)
10 | NC[C@@](O)(c1ccc(Cl)cc1)c1ccc(-c2cn[nH]c2)cc1 [AT-13148] | > 30 µM (inactive) | > 30 µM (inactive) | > 30 µM (inactive) | > 30 µM (inactive) | > 30 µM (inactive) | > 30 µM (inactive) | > 30 µM (inactive) | > 30 µM (inactive) | > 30 µM (inactive)
11 | CC[C@@](C)(Nc1ccnc(-c2c[nH]c3ncccc23)n1)C(=O)NCC(F)(F)F [DECERNOTINIB] | 7.07 µM (active) | > 30 µM (inactive) | > 30 µM (inactive) | – | > 30 µM (inactive) | > 30 µM (inactive) | > 30 µM (inactive) | > 30 µM (inactive) | > 30 µM (inactive)
12 | CCc1nc(C(N)=O)c(Nc2ccc(N3CCC(N4CCN(C)CC4)CC3)c(OC)c2)nc1NC1CCOCC1 [GILTERITINIB] | > 30 µM (inactive) | > 30 µM (inactive) | – | > 30 µM (inactive) | 2.98 µM (active) | 0.502 µM (active) | > 30 µM (inactive) | > 30 µM (inactive) | > 30 µM (inactive)
13 | FC(F)(F)c1ccc(CNc2ccc(Cc3c[nH]c4ncc(Cl)cc34)cn2)cn1 [PEXIDARTINIB] | > 30 µM (inactive) | > 30 µM (inactive) | > 30 µM (inactive) | > 30 µM (inactive) | > 30 µM (inactive) | > 30 µM (inactive) | – | > 30 µM (inactive) | > 30 µM (inactive)
14 | C=CC(=O)Nc1cccc(Nc2nc(Nc3ccc(N4CCN(C(C)=O)CC4)cc3OC)ncc2C(F)(F)F)c1 [ROCILETINIB] | > 30 µM (inactive) | > 30 µM (inactive) | > 30 µM (inactive) | – | > 30 µM (inactive) | > 30 µM (inactive) | > 30 µM (inactive) | > 30 µM (inactive) | > 30 µM (inactive)
15 | O[C@H]1CC[C@H](Nc2ncc3nc(Nc4c(F)cc(F)cc4F)n([C@H]4CCOC4)c3n2)CC1 [TANZISERTIB] | > 30 µM (inactive) | > 30 µM (inactive) | > 30 µM (inactive) | – | > 30 µM (inactive) | > 30 µM (inactive) | > 30 µM (inactive) | > 30 µM (inactive) | > 30 µM (inactive)
16 | CNC(=O)c1cc(COc2nnc(Nc3ccc(Cl)cc3)c3ccoc23)ccn1 [TELATINIB] | > 30 µM (inactive) | > 30 µM (inactive) | > 30 µM (inactive) | – | > 30 µM (inactive) | > 30 µM (inactive) | > 30 µM (inactive) | > 30 µM (inactive) | > 30 µM (inactive)
17 | Cc1cc(-c2cc(OC(=O)c3ccccc3)ccc2Cl)cc2nnc(Nc3ccc(OCCN4CCCC4)cc3)nc12 [TG100-801] | 1.03 µM (active) | > 30 µM (inactive) | > 30 µM (inactive) | – | > 30 µM (inactive) | > 30 µM (inactive) | > 30 µM (inactive) | > 30 µM (inactive) | > 30 µM (inactive)
